In experiment [1] the test system is E. coli RNase P RNA, M1 RNA. Nature of the experiment: Inhibition of bacterial RNase P activity, IC50 determination (cleavage of pATSerUG by M1 RNA). Type of experiment: biochemical. Particulars: NI: No inhibition.
Experiment [2] concerns Staphylococcus aureus (ATCC25923). The experiment in a line: MIC, broth microdilution (CLSI), Staphylococcus aureus ATCC25923. The note with it: Staphylococcus aureus, ATCC25923, read-out: S. aureus ATCC 25923 MIC. For orientation: In broth dilution the organism is exposed to a series of concentrations in liquid medium.
Experiment [3] deals with Escherichia coli (ATCC25922). The experiment in a line: MIC, broth microdilution (CLSI), Escherichia coli. Particulars: Escherichia coli, ATCC25922, read-out: E. coli ATCC 25922 MIC, Table XIII.

Where a name gives a salt, the structure may show the parent alone.

As a reminder, the IC50 is the midpoint of a concentration-inhibition curve. In general, MIC refers to the lowest concentration that inhibits growth of the organism. Consider `Cc1cccc(C(CC(=O)NC2CCC(N)CC2)c2cn(CC3CCCCC3)c3ccc(-c4ccccc4Cl)cc23)c1.Cl` [Compound 224, N-((1S,4S)-4-aminocyclohexyl)-3-(5-(2-chlorophenyl)-1-(cyclohexylmethyl)-1H-indol-3-yl)-3-(m-tolyl)propanamide hydrochloride salt], for which the IC50 in experiment [1] turned out to be 2.9 µM. Besides, the results for the MIC in experiment [2] and in experiment [3] were 5 µg/mL and 82 µg/mL, respectively.
In experiment [1], `Cc1cccc(C(CC(=O)NC2CCNCC2)c2cn(CC3CCCCC3)c3ccccc23)c1.Cl` (stereo not drawn) [Compound 89, 3-(1-(cyclohexylmethyl)-1H-indol-3-yl)-N-(piperidin-4-yl)-3-(m-tolyl)propanamide hydrochloride salt] had an IC50 of 37 µM. The MIC in experiment [2] was found to be 8 µg/mL; in experiment [3] it was 32 µg/mL.
Take `NC1CCC(NCCc2cn(CC3CCCCC3)c3ccc(-c4ccccc4OC(F)(F)F)cc23)CC1` [Compound 241, (1S,4S)-N1-(2-(1-(cyclohexylmethyl)-5-(2-(trifluoromethoxy)phenyl)-1H-indol-3-yl)ethyl)cyclohexane-1,4-diamine hydrochloride salt]: the IC50 in experiment [1] was 25 µM. For the same molecule, the MIC in experiment [2] was found to be 2 µg/mL; in experiment [3] it was 5 µg/mL.
In turn, `Cc1cccc(C(CC(=O)NC2CCC(N)CC2)c2cn(CC3CCCCCC3)c3ccccc23)c1.Cl` [Compound 238, N-((1S,4S)-4-aminocyclohexyl)-3-(1-(cycloheptylmethyl)-1H-indol-3-yl)-3-(m-tolyl)propanamide hydrochloride salt] gave an IC50 in experiment [1] of 9.2 µM. Besides, the MIC in experiment [2] is 4 µg/mL; in experiment [3], > 512 µg/mL.
`Cc1cccc(C(CC(=O)NCC2CNCCO2)c2cn(CC3CCCCC3)c3ccc(Br)cc23)c1.Cl` (stereo not drawn) [Compound 281, 3-(5-bromo-1-(cyclohexylmethyl)-1H-indol-3-yl)-N-(morpholin-2-ylmethyl)-3-(m-tolyl)propanamide hydrochloride salt] registered an IC50 in experiment [1] of 168 µM. The minimal inhibitory concentration (MIC) was 19 µg/mL in experiment [2] and > 512 µg/mL in experiment [3].
For `Cc1cccc(C(CC(=O)NC2CCC(N)CC2)c2c(C)n(CC3CCCCC3)c3ccccc23)c1.Cl` [Compound 243, N-((1S,4S)-4-aminocyclohexyl)-3-(1-(cyclohexylmethyl)-2-methyl-1H-indol-3-yl)-3-(m-tolyl)propanamide hydrochloride salt], in experiment [1], the IC50 is 35 µM. Besides, the MIC in experiment [2] was 17 µg/mL; in experiment [3], > 512 µg/mL.
In the case of `Cc1cccc(C(CC(=O)NC2CCC(N)CC2)c2cn(CC3CCCCC3)c3ccc(C4=CCNCC4)cc23)c1` [Compound 228, N-((1S,4S)-4-aminocyclohexyl)-3-(1-(cyclohexylmethyl)-5-(1,2,3,6-tetrahydropyridin-4-yl)-1H-indol-3-yl)-3-(m-tolyl)propanamide hydrochloride salt], the IC50 in experiment [1] is 57 µM. Moreover, the results for the MIC in experiment [2] and in experiment [3] were 10 µg/mL and 40 µg/mL, respectively.
As to `Cc1cccc(C(CC(=O)N[C@H]2CC[C@H](N)CC2)c2cn(CC3CCCCC3)c3ccc(F)cc23)c1.Cl` (stereo partly drawn) [Compound 125, N-((1R,4R)-4-aminocyclohexyl)-3-(1-(cyclohexylmethyl)-5-fluoro-1H-indol-3-yl)-3-(m-tolyl)propanamide hydrochloride salt], 29 µM corresponded to half-maximal inhibition in experiment [1] (IC50). For the same molecule, the MIC came out at 8 µg/mL in experiment [2] and 256 µg/mL in experiment [3].
In experiment [1], `Cl.N[C@H]1CC[C@H](NC(=O)CCc2cn(Cc3ccccc3)c3ccccc23)CC1` [Compound 100, N-((1R,4R)-4-aminocyclohexyl)-3-(1-benzyl-1H-indol-3-yl)propanamide hydrochloride salt] came in with an IC50 of 486 µM. Besides, the values for the minimal inhibitory concentration (MIC) in experiment [2] and in experiment [3] were 256 µg/mL and > 512 µg/mL, respectively.
In experiment [1], `Cc1cccc(C(CC(=O)NC2CCC(N)CC2)c2cn(CC3CCCCC3)c3ccc(-c4ccccc4C)cc23)c1.Cl` [Compound 221, N-((1S,4S)-4-aminocyclohexyl)-3-(1 - (cyclohexylmethyl)-5-(o-tolyl)-1H-indol-3-yl)-3-(m-tolyl)propanamide hydrochloride salt] displayed an IC50 of 3.4 µM. Moreover, the MIC in experiment [2] was 38 µg/mL; in experiment [3] it was > 512 µg/mL.

(Values after patent publication US20210246115A1 (Bioimics AB, priority 2017, published 2021).)
